Calls of active or inactive are those of the source.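 Rule for the calls: active = AC50 no more than tenfold above the top dose tested, or full inhibition at every dose with a flat fit (cut at about 19 µM in these data); inconclusive = flat curve fit with inhibition between 30% and 70%, or poor fit; inactive = AC50 more than tenfold above the top dose tested.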
Test system: HMLE_sh_eGFP viability, CellTiter-Glo luminescence, 72 h
Assay: viability loss of HMLE_sh_eGFP cells – cell-based, luminescence, counter-screen for HMLE_sh_ECad selective toxicity project, dose response (AID 463074);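 note: counterscreen control line to flag general toxicity for the HMLE_sh_ECad screen; potency for loss of viability as luminescence drops below DMSO wells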

| Structure (SMILES) | AC50 |
| --- | --- |
| CCCCCCOc1ccc(/C(C)=N/NC2=NCCN2)cc1 | 3.69 µM |
| C=C(C)COc1ccc(-c2n[nH]c(C)c2-c2ccc(OC)c(OC)c2)c(O)c1 | 2.65 µM |
| O=C(N/N=C/c1cn(-c2cccs2)nc1-c1ccccc1)c1ccc(O)cc1 | 7.76 µM |
| Cc1ccc(Nc2cc(C)c3ccc(O)cc3n2)cc1C | 9.16 µM |
| CCN1C(=O)/C(=C\c2ccncc2)SC1=Nc1ccc(C)c(C)c1 | 6.82 µM |
| Cc1ccc(NS(=O)(=O)c2sc3ccc(Cl)cc3c2C)cc1 | 3.78 µM |
| O=C(CN(c1ccc(Cl)cc1)S(=O)(=O)c1ccc(Cl)c([N+](=O)[O-])c1)NCCc1ccc(F)cc1 | 3.81 µM |
| NCCc1ccc(OCc2ccccc2)c(OCc2ccccc2)c1 | 13.6 µM |
| CCC(C)Sc1cccc(-c2nc3cc(C)ccn3c2NCc2ccccc2)c1 (stereo not given) | 4.89 µM |
| COc1ccccc1/C=C1\SC(=S)N(CCC(=O)NCCCn2ccnc2)C1=O | 18.6 µM |
| O=C(NCCN1CCCC1)c1ccc2c(c1)N(Cc1cccc(Cl)c1)C(=O)c1ccccc1S2(=O)=O | > 19.5 µM (inactive) |
| N#Cc1c(N)nc2c(c1-c1cccc(O)c1)CCCCCC2 | 16.3 µM |
| COc1ccc(/C=C/c2nc3cc(-c4ccccc4)ccc3o2)cc1O | 9.18 µM |
| O=C(/C=C\c1ccccc1)NCC(=O)N/N=C/c1ccc(O)cc1O | 12 µM |
| Cc1ccc(CNc2cnn(C34CC5CC(CC(C5)C3)C4)c(=O)c2Cl)cc1 | 2.44 µM |
| O=C(/C=C/c1ccc2c(c1)OCO2)Nc1nc(-c2ccccc2)cs1 | 0.781 µM |
| COc1ccc(C2=Nn3c(nnc3-c3ccccc3F)SC2)cc1OC1CCCC1 | 5.54 µM |
| CCCCCCc1cc2cc(C(=O)Nc3ccccc3)c(=O)oc2cc1O | 2.01 µM |
| COc1ccccc1/C=C/C1(C(=O)NC2CCCC2)CC(=O)N1c1ccc(F)cc1 (stereo not given) | 10.1 µM |
| NC(=O)c1ccc(NC(=O)COC(=O)c2c3c(nc4ccccc24)/C(=C\c2cccs2)CCC3)cc1 | 10.3 µM |
| CCCCCc1ccc(OCCCC[n+]2cccc(C)c2)c(CCCCC)c1 | 7.42 µM |
| COc1ccccc1/C=C1\S/C(=N/NC(=O)c2cccc(Br)c2)NC1=O | 8.09 µM |
| C=C1/C(=C\C=C2/CCC[C@]3(C)[C@@H]([C@H](C)/C=C/[C@@H](O)C4CC4)CC[C@@H]23)C[C@@H](O)C[C@@H]1O | 6.49 µM |
| O=C(NNC(=O)c1cc(Cl)ccc1O)c1ccc(NS(=O)(=O)c2cccs2)cc1 | 8.13 µM |
| Nc1nnc(SCC(=O)OCC(=O)NC2CCCCC2)s1 | > 19.5 µM (inactive) |

| Structure (SMILES) | AC50 |
| --- | --- |
| C/C(=N\Nc1cc(N2CCCCC2)nc(C)n1)c1ccc(Br)cc1 | 5.82 µM |
| COC(=O)c1cc(=O)n(Cc2cccs2)c(=Nc2ccc(F)cc2)s1 | 3.58 µM |
| CCCN1C/C(=C/c2ccc3c(c2)OCO3)C(=O)/C(=C/c2ccc3c(c2)OCO3)C1 | 1.12 µM |
| CC(C)CC(=O)NC(NC(=S)Nc1sc2c(c1C#N)CCCC2)C(Cl)(Cl)Cl (stereo not given) | 10.6 µM |
| COc1ccc2nc(C)cc(N/N=C/c3ccccc3)c2c1 | 7.36 µM |
| Cc1cc2c(cc1C)C(c1ccccc1OC(C)C)CC(=O)N2 (stereo not given) | 1.54 µM |
| CCc1c(C)sc(NC(=O)/C=C/c2ccc3c(c2)OCO3)c1C(=O)OC | 0.776 µM |
| CCOC(=O)C1=C(C)NC(C)=C(C(=O)OCC)C1c1ccccc1/C=C/C(=O)OC(C)(C)C | 4.67 µM |
| N=c1c2c(ncn1Cc1ccco1)Oc1c(ccc3ccccc13)C2c1ccccc1 (stereo not given) | 3.92 µM |
| CCCCNc1c(-c2ccc(OC)c(SC3CCCCC3)c2)nc2cc(C)ccn12 | 5.29 µM |
| COc1ccc(N=C2NN=C(c3c(C)[nH]c4ccccc34)CS2)cc1 | 7.77 µM |
| COc1ccc(-c2cc(C(F)(F)F)nc(S(C)(=O)=O)n2)cc1 | 3.56 µM |
| O=[N+]([O-])c1cc(-c2cnc3ccccc3n2)ccc1Oc1ccc(Cl)cc1 | 3.38 µM |
| Cc1nc2ccccc2n1-c1nc(-c2ccco2)cc(C(F)(F)F)n1 | 0.817 µM |
| CCc1ccc2nc(SCC(=O)Nc3ccccc3N3CCOCC3)c(C#N)cc2c1 | 2.73 µM |
| CC(=O)O[C@H]1[C@@H](O)[C@H](O)[C@H](Oc2c(O)c(C)c3c4c2[C@@H](C)CC[C@@H]4[C@@H](C)C[C@H]3C=C(C)C)O[C@H]1C | 3.57 µM |
| CC(C)=CCc1c(O)ccc(C(=O)Cc2ccccc2)c1O | 4.41 µM |
| Cc1cc(C)cc(NC(=O)Nc2ccc(NC(=O)c3ccccc3O)cc2)c1 | > 19.5 µM (inactive) |
| O=C(NCc1ccc(F)cc1)C(=O)Nc1nc(C23CC4CC(CC(C4)C2)C3)cs1 | 2.13 µM |
| CCc1ccc2oc(C(=O)NCC(c3ccc(OC)cc3)N3CCCCC3)c(C)c2c1 (stereo not given) | 6.09 µM |
| O=c1cc(N2CCCCC2)c(-c2ccccc2)nn1Cc1cccc(F)c1 | 5.13 µM |
| CCOC(=O)CSC1=C(C#N)C(c2sccc2C)CC(=O)N1 (stereo not given) | > 19.5 µM (inactive) |
| Cc1ccccc1-n1c(SCC(=O)N/N=C/C=C/c2ccccc2[N+](=O)[O-])nc2ccccc2c1=O | > 19.5 µM (inactive) |
| O=C(Nc1ccc2nc3n(c(=O)c2c1)CCCCC3)c1cc([N+](=O)[O-])ccc1F | 6.62 µM |
| O=C(N/N=C/c1cc(Br)ccc1O)C(=O)Nc1ccccc1OC(F)(F)C(F)F | 3.6 µM |

| Structure (SMILES) | AC50 |
| --- | --- |
| Cc1cc(N2CCN(c3ccc(C(F)(F)F)cc3[N+](=O)[O-])CC2)c2ccccc2n1 | 1.38 µM |
| COc1cccc(C2C3=C(N=c4s/c(=C\c5cccc(O)c5)c(=O)n42)c2ccccc2CC3)c1OC (stereo not given) | 8.57 µM |
| CCOc1ccc(OCC(=O)N(CCC2=CCCCC2)c2c(N)n(Cc3ccccc3)c(=O)[nH]c2=O)cc1 | 6.29 µM |
| Cc1ccc(/C=N/Nc2cc(C)nc(NCc3ccccc3)n2)cc1 | 7.16 µM |
| COc1ccc(-n2c(Cc3cccn3C)nnc2SCC(=O)Nc2cccc(Cl)c2)cc1 | > 19.5 µM (inactive) |
| COc1ccc(NC(=O)c2cc3ccc(O)cc3o/c2=N\O)cc1 | 9.36 µM |
| O=C(/C=C/c1ccccc1[N+](=O)[O-])c1ccccc1Br | 3.64 µM |
| Cc1cc2oc(=O)c(CC(=O)NCCCN(C)C)c(C)c2c2occ(C(C)(C)C)c12 | 2.85 µM |
| C[C@@H]1O[C@@H](O[C@@H]2C=C3CC[C@@H]4C(CC[C@]5(C)[C@@H](c6ccc(=O)oc6)CC[C@]45O)[C@@]3(C)CC2)[C@H](O)[C@H](O)[C@H]1O (stereo not given in full) | < 0.16 µM |
| Cc1ccc(/C=C/C(=O)c2cc(Br)ccc2OC(=O)c2ccco2)cc1 | 5.92 µM |
| CC(=O)Oc1ccc(-c2csc(Nc3ccc(Cl)cn3)n2)cc1 | 4.6 µM |
| NC(=O)CC(NC(=O)Cc1cccc2ccccc12)c1ccc(NCc2ccc(F)cc2)c([N+](=O)[O-])c1 (stereo not given) | 19.8 µM |
| CCOc1cc(N2CCOCC2)c(OCC)cc1NC(=O)CN1CCC(Cc2ccccc2)CC1 | 2.43 µM |
| Oc1nc(Nc2cccc(Cl)c2)sc1/C=C1\C=Nc2ccccc21 | 3.78 µM |
| O=C(Nc1ccc(Br)cn1)c1cccc(-c2cc3ccccc3oc2=O)c1 | 12.3 µM |
| O=C(c1ccc(C#CC2(O)CCCCC2)cc1)N1CCN(C(c2ccccc2)c2ccccc2)CC1 | 2.52 µM |
| CCOC(=O)C1=C(c2ccccc2)N=c2s/c(=C\c3cccc(O)c3)c(=O)n2C1c1cccs1 (stereo not given) | 3.39 µM |
| CC(C)c1ccc(N2C(=O)NC(=O)/C(=C\C=C\c3ccco3)C2=O)cc1 | > 19.5 µM (inactive) |
| Clc1ccc(CO/N=C/c2c(-c3ccccc3)nc3n2CCS3)c(Cl)c1 | 4.62 µM |
| CC1CCN(S(=O)(=O)c2ccc3c(c2)C(=NO)c2cc(S(=O)(=O)N4CCC(C)CC4)ccc2-3)CC1 | 1.01 µM |
| CCOC(=O)c1ccc(NC(=O)c2nc[nH]c2C(=O)NCCCCNC(=O)c2[nH]cnc2C(=O)Nc2ccc(C(=O)OCC)cc2)cc1 | 3.99 µM |
| OC(CNCCc1ccc(C(F)(F)F)cc1)COc1cccc2ccccc12 (stereo not given) | 3.54 µM |
| O=C(Nc1ncc(Cc2cccc([N+](=O)[O-])c2)s1)c1ccco1 | 1.44 µM |
| CC(=O)Nc1sc(C)c(C)c1C(=O)OCC(=O)N(CC(C)C)c1c(N)n(Cc2ccccc2)c(=O)[nH]c1=O | 2.85 µM |
| CC(C)n1cnc2c(NCc3ccccc3)cc(N[C@H](C)CO)cc21 | 7.36 µM |

| Structure (SMILES) | AC50 |
| --- | --- |
| CCn1cc(C(=O)N[C@H](C)c2ccccc2)c(=O)c2cc(F)c(N3CCN(C)CC3)cc21 | 3.5 µM |
| Cn1nnnc1Sc1ncnc2scc(-c3cc4ccccc4o3)c12 | 1.17 µM |
| COc1cc(OC)cc(-c2sc3ccc(OC)cc3c2C#CCO)c1 | 6.89 µM |
| COc1cc(F)c(C2=CC(=O)C[C@H](c3ccc(Cl)cc3)C2)cc1F | 3.48 µM |
| CCCCc1ccc(NC(=O)CSc2nc(=O)n(CCN(CC)CC)c3c2CCC3)cc1 | 9.97 µM |
| O=C(Nc1nc(-c2cccs2)cs1)c1ccc([N+](=O)[O-])o1 | 3.18 µM |
| COc1ccc(-c2sc3cc4c(cc3c2C#CC2(O)CCCCC2)OCO4)cc1 | 6.35 µM |
| NC(=O)CC(NC(=O)Cc1ccc(Br)cc1)c1ccc(N2CCN(c3ccccc3)CC2)c([N+](=O)[O-])c1 (stereo not given) | 17.6 µM |
| O=C(/C=C/c1ccccc1)NC(=S)NNC(=O)c1cnccn1 | 6.84 µM |
| O=C(/C=C/c1c[nH]c2ccccc12)c1cccc2ccccc12 | 5.3 µM |
| COc1ccc(CNCCC(c2ccc(OC(C)C)cc2)c2ccccc2OC)cc1 (stereo not given) | 4.71 µM |
| COc1ccc([N+](=O)[O-])cc1Nc1c2ccccc2nc2ccccc12 | 1.43 µM |
| Cc1ccc(C(C#N)c2ccc3c(C(F)(F)F)cc(C(F)(F)F)nc3n2)cc1 (stereo not given) | 2.56 µM |
| CCCNC(=O)c1onc(CSc2ccc(Cl)cc2)c1C(=O)NCCC(C)C | 2.99 µM |
| C=C(C(=O)c1ccccc1)C(CC(=O)c1ccccc1)c1ccccc1 (stereo not given) | 3.6 µM |
| CCOc1ccc(C(=O)CCC(=O)N2CCN(c3ccc(O)cc3)CC2)cc1 | 2.49 µM |
| Cc1ccc2nc(-c3cccc(-c4cccc(Cl)c4)c3)c(NCc3ccccc3)n2c1 | 3.17 µM |
| C[C@@H]1CC=C[C@H]2[C@H]1C(=O)N(Cc1ccccc1)[C@H]2c1ccc2ccccc2c1 | 6.67 µM |
| COc1ccc(Oc2c(Cl)cnn(-c3ccc(Cl)c(Cl)c3)c2=O)cc1 | 3.44 µM |
| COC(=O)C1C(=O)C2=C(CC1C)NC(=O)CC2c1cccc(C)c1 (stereo not given) | > 19.5 µM (inactive) |
| COc1cccc(O)c1CN1CCC(C(=O)Nc2ccc(-c3cccc(C)c3)cc2)CC1 | 4.06 µM |
| CC[C@H]1CC2CN3CCc4c([nH]c5c([C@H]6C[C@H]7[C@H](CC)CN(C)[C@@H](Cc8c6[nH]c6ccccc86)[C@H]7C(=O)OC)c(OC)ccc45)C(C(=O)OC)(C2)C13 | 4.25 µM |
| CCCc1nc2ccccc2c(C(=O)OCC(=O)Nc2ccc(S(=O)(=O)N3CCOCC3)cc2)c1CC | 5.86 µM |
| COc1ccc(OC)c(-c2csc(NC(=O)c3ccc(F)cc3)n2)c1 | 6.89 µM |
| COc1ccc(-c2csc(NC(=S)NC(=O)/C=C/c3ccco3)n2)cc1Br | 1.98 µM |
